How the values were obtained:
Type in all cases: in vivo
Conditions in all cases: treatment dosage 320 g/ha
common wind-grass [1] = experiment: Test Example 3: weedkilling efficacy through soil treatment; J: common wind-grass
In short: (§1)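 Crop and weed responses were judged three weeks after a uniform surface spray of the water-diluted emulsion at the given g/ha rate. Seeds sat beneath about 1.5 cm of sterilized diluvial soil, and boxes stood in a greenhouse at 25 to 30° C.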

soybean [2] = experiment: Test Example 4: foliar treatment, effect on crop; d: soybean
In short: (§2)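 Seeds are spot-sown into sterilized diluvial soil and covered with about 1.5 cm of soil. After 14 days' greenhouse growth at 25 to 30° C, plants are sprayed on stems and leaves with diluted emulsion at the stated g/ha rate, then scored at 3 weeks.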

black-grass [3] = experiment: Test Example 3: weedkilling efficacy through soil treatment; H: black-grass
In short: as §1

directly sown rice [4] = experiment: Test Example 4: foliar treatment, effect on crop; b: directly sown rice
In short: as §2

catchweed [5] = experiment: Test Example 4: weedkilling efficacy by foliar treatment; O: catchweed
In short: as §2

green foxtail [6] = experiment: Test Example 4: weedkilling efficacy by foliar treatment; E: green foxtail
In short: as §2

redroot pigweed [7] = experiment: Test Example 4: weedkilling efficacy by foliar treatment; L: redroot pigweed
In short: as §2

redroot pigweed [8] = experiment: Test Example 3: weedkilling efficacy through soil treatment; L: redroot pigweed
In short: as §1

black-grass [9] = experiment: Test Example 4: weedkilling efficacy by foliar treatment; H: black-grass
In short: as §2

wild oat [10] = experiment: Test Example 3: weedkilling efficacy through soil treatment; G: wild oat
In short: as §1

Italian ryegrass [11] = experiment: Test Example 3: weedkilling efficacy through soil treatment; I: Italian ryegrass
In short: as §1

chickweed [12] = experiment: Test Example 3: weedkilling efficacy through soil treatment; N: chickweed
In short: as §1

directly sown rice [13] = experiment: Test Example 3: soil treatment, effect on crop; b: directly sown rice
In short: as §1

green foxtail [14] = experiment: Test Example 3: weedkilling efficacy through soil treatment; E: green foxtail
In short: as §1

wild oat [15] = experiment: Test Example 4: weedkilling efficacy by foliar treatment; G: wild oat
In short: as §2

barnyard grass [16] = experiment: Test Example 3: weedkilling efficacy through soil treatment; F: barnyard grass
In short: as §1

fig-leafed goosefoot [17] = experiment: Test Example 3: weedkilling efficacy through soil treatment; M: fig-leafed goosefoot
In short: as §1

corn [18] = experiment: Test Example 3: soil treatment, effect on crop; c: corn
In short: as §1

common wind-grass [19] = experiment: Test Example 4: weedkilling efficacy by foliar treatment; J: common wind-grass
In short: as §2

crabgrass [20] = experiment: Test Example 3: weedkilling efficacy through soil treatment; D: crabgrass
In short: as §1

Indian mallow [21] = experiment: Test Example 3: weedkilling efficacy through soil treatment; K: Indian mallow
In short: as §1

wheat [22] = experiment: Test Example 3: soil treatment, effect on crop; e: wheat
In short: as §1

wheat [23] = experiment: Test Example 4: foliar treatment, effect on crop; e: wheat
In short: as §2

barnyard grass [24] = experiment: Test Example 4: weedkilling efficacy by foliar treatment; F: barnyard grass
In short: as §2

Indian mallow [25] = experiment: Test Example 4: weedkilling efficacy by foliar treatment; K: Indian mallow
In short: as §2

corn [26] = experiment: Test Example 4: foliar treatment, effect on crop; c: corn
In short: as §2

chickweed [27] = experiment: Test Example 4: weedkilling efficacy by foliar treatment; N: chickweed
In short: as §2

birds-eye speedwell = experiment: Test Example 3: weedkilling efficacy through soil treatment; p: birds-eye speedwell
In short: as §1

catchweed [28] = experiment: Test Example 3: weedkilling efficacy through soil treatment; O: catchweed
In short: as §1

beet [29] = experiment: Test Example 4: foliar treatment, effect on crop; f: beet
In short: as §2

fig-leafed goosefoot [30] = experiment: Test Example 4: weedkilling efficacy by foliar treatment; M: fig-leafed goosefoot
In short: as §2

rapeseed [31] = experiment: Test Example 3: soil treatment, effect on crop; g: rapeseed
In short: as §1

Italian ryegrass [32] = experiment: Test Example 4: weedkilling efficacy by foliar treatment; I: Italian ryegrass
In short: as §2

rapeseed [33] = experiment: Test Example 4: foliar treatment, effect on crop; g: rapeseed
In short: as §2

soybean [34] = experiment: Test Example 3: soil treatment, effect on crop; d: soybean
In short: as §1

crabgrass [35] = experiment: Test Example 4: weedkilling efficacy by foliar treatment; D: crabgrass
In short: as §2

bulrush [36] = experiment: Test Example 1: weedkilling efficacy, preemergent weed treatment in the submerged state; B: bulrush
In short: (§3)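 Pre-emergence application onto floodwater (4 cm, alluvial soil) on the day of sowing, dose expressed as g/ha from diluted emulsion formulation. Weeds sown with 2.5-leaf transplanted rice as crop; plants held at 25–30 °C in greenhouse and scored against assessment criteria after 3 weeks.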

oval-leafed pondweed [37] = experiment: Test Example 1: weedkilling efficacy, preemergent weed treatment in the submerged state; C: oval-leafed pondweed
In short: as §3

barnyard grass [38] = experiment: Test Example 1: weedkilling efficacy, preemergent weed treatment in the submerged state; A: barnyard grass
In short: as §3

barnyard grass [39] = experiment: Test Example 2: weedkilling efficacy, growth period weed treatment in the submerged state; A: barnyard grass
In short: (§4)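 Weeds treated at the 1-2 leaf stage by application of diluted emulsion onto floodwater (4 cm depth, alluvial soil) at specified g/ha. Grown in greenhouse at 25 to 30° C; herbicidal effect rated three weeks after treatment.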

bulrush [40] = experiment: Test Example 2: weedkilling efficacy, growth period weed treatment in the submerged state; B: bulrush
In short: as §4

beet [41] = experiment: Test Example 3: soil treatment, effect on crop; f: beet
In short: as §1

transplanted rice = experiment: Test Example 1: preemergent weed treatment in the submerged state, effect on crop; a: transplanted rice
In short: as §3

oval-leafed pondweed [42] = experiment: Test Example 2: weedkilling efficacy, growth period weed treatment in the submerged state; C: oval-leafed pondweed
In short: as §4

## CC1=C(c2cccnc2F)C(=O)N(C(C)(C)C(=O)Nc2cc(Cl)cc(Cl)n2)CO1 [B-2-11]
Common wind-grass [1]
  J (common wind-grass) weedkilling efficacy grade: 5 (weed kill ratio 90% or more, (practically complete withering))
Soybean [2]
  d (soybean) effect on crop grade: 4 (weed kill ratio 70% or more, less than 90%)
black-grass [3]
  H (black-grass) weedkilling efficacy grade: 5 (weed kill ratio 90% or more, (practically complete withering))
Directly sown rice [4]
  b (directly sown rice) effect on crop grade: 3 (weed kill ratio 40% or more, less than 70%)
Catchweed [5]
  O (catchweed) weedkilling efficacy grade: 4 (weed kill ratio 70% or more, less than 90%)
Green foxtail [6]
  E (green foxtail) weedkilling efficacy grade: 5 (weed kill ratio 90% or more, (practically complete withering))
Redroot pigweed [7]
  L (redroot pigweed) weedkilling efficacy grade: 4 (weed kill ratio 70% or more, less than 90%)
Redroot pigweed [8]
  L (redroot pigweed) weedkilling efficacy grade: 0 (weed kill ratio 5% or less (practically no effect))
black-grass [9]
  H (black-grass) weedkilling efficacy grade: 5 (weed kill ratio 90% or more, (practically complete withering))
Wild oat [10]
  G (wild oat) weedkilling efficacy grade: 3 (weed kill ratio 40% or more, less than 70%)
Italian ryegrass [11]
  I (Italian ryegrass) weedkilling efficacy grade: 5 (weed kill ratio 90% or more, (practically complete withering))
Chickweed [12]
  N (chickweed) weedkilling efficacy grade: 4 (weed kill ratio 70% or more, less than 90%)
Directly sown rice [13]
  b (directly sown rice) effect on crop grade: 3 (weed kill ratio 40% or more, less than 70%)
Green foxtail [14]
  E (green foxtail) weedkilling efficacy grade: 5 (weed kill ratio 90% or more, (practically complete withering))
Wild oat [15]
  G (wild oat) weedkilling efficacy grade: 4 (weed kill ratio 70% or more, less than 90%)
Barnyard grass [16]
  F (barnyard grass) weedkilling efficacy grade: 5 (weed kill ratio 90% or more, (practically complete withering))
fig-leafed goosefoot [17]
  M (fig-leafed goosefoot) weedkilling efficacy grade: 4 (weed kill ratio 70% or more, less than 90%)
Corn [18]
  c (corn) effect on crop grade: 1 (weed kill ratio 5% or more, less than 20%)
Common wind-grass [19]
  J (common wind-grass) weedkilling efficacy grade: 5 (weed kill ratio 90% or more, (practically complete withering))
Crabgrass [20]
  D (crabgrass) weedkilling efficacy grade: 5 (weed kill ratio 90% or more, (practically complete withering))
Indian mallow [21]
  K (Indian mallow) weedkilling efficacy grade: 0 (weed kill ratio 5% or less (practically no effect))
Wheat [22]
  e (wheat) effect on crop grade: 0 (weed kill ratio 5% or less (practically no effect))
Wheat [23]
  e (wheat) effect on crop grade: 0 (weed kill ratio 5% or less (practically no effect))
Barnyard grass [24]
  F (barnyard grass) weedkilling efficacy grade: 5 (weed kill ratio 90% or more, (practically complete withering))
Indian mallow [25]
  K (Indian mallow) weedkilling efficacy grade: 5 (weed kill ratio 90% or more, (practically complete withering))
Corn [26]
  c (corn) effect on crop grade: 5 (weed kill ratio 90% or more, (practically complete withering))
Chickweed [27]
  N (chickweed) weedkilling efficacy grade: 4 (weed kill ratio 70% or more, less than 90%)
birds-eye speedwell
  P (birds-eye speedwell) weedkilling efficacy grade: 5 (weed kill ratio 90% or more, (practically complete withering))
Catchweed [28]
  O (catchweed) weedkilling efficacy grade: 3 (weed kill ratio 40% or more, less than 70%)
Beet [29]
  f (beet) effect on crop grade: 4 (weed kill ratio 70% or more, less than 90%)
fig-leafed goosefoot [30]
  M (fig-leafed goosefoot) weedkilling efficacy grade: 5 (weed kill ratio 90% or more, (practically complete withering))
Rapeseed [31]
  g (rapeseed) effect on crop grade: 1 (weed kill ratio 5% or more, less than 20%)
Italian ryegrass [32]
  I (Italian ryegrass) weedkilling efficacy grade: 5 (weed kill ratio 90% or more, (practically complete withering))
Rapeseed [33]
  g (rapeseed) effect on crop grade: 4 (weed kill ratio 70% or more, less than 90%)
Soybean [34]
  d (soybean) effect on crop grade: 0 (weed kill ratio 5% or less (practically no effect))
Crabgrass [35]
  D (crabgrass) weedkilling efficacy grade: 5 (weed kill ratio 90% or more, (practically complete withering))

## CC1=C(c2cccnc2F)C(=O)N(C(C)(C)C(=O)Nc2cc(Cl)cc(Br)n2)CO1 [B-2-12]
Common wind-grass [1]
  J (common wind-grass) weedkilling efficacy grade: 5 (weed kill ratio 90% or more, (practically complete withering))
Soybean [2]
  d (soybean) effect on crop grade: 4 (weed kill ratio 70% or more, less than 90%)
black-grass [3]
  H (black-grass) weedkilling efficacy grade: 5 (weed kill ratio 90% or more, (practically complete withering))
Directly sown rice [4]
  b (directly sown rice) effect on crop grade: 5 (weed kill ratio 90% or more, (practically complete withering))
Catchweed [5]
  O (catchweed) weedkilling efficacy grade: 4 (weed kill ratio 70% or more, less than 90%)
Green foxtail [6]
  E (green foxtail) weedkilling efficacy grade: 5 (weed kill ratio 90% or more, (practically complete withering))
Redroot pigweed [7]
  L (redroot pigweed) weedkilling efficacy grade: 4 (weed kill ratio 70% or more, less than 90%)
Redroot pigweed [8]
  L (redroot pigweed) weedkilling efficacy grade: 0 (weed kill ratio 5% or less (practically no effect))
black-grass [9]
  H (black-grass) weedkilling efficacy grade: 5 (weed kill ratio 90% or more, (practically complete withering))
Bulrush [36]
  B (bulrush) weedkilling efficacy grade: 5 (weed kill ratio 90% or more, (practically complete withering))
oval-leafed pondweed [37]
  C (oval-leafed pondweed) weedkilling efficacy grade: 5 (weed kill ratio 90% or more, (practically complete withering))
Wild oat [10]
  G (wild oat) weedkilling efficacy grade: 1 (weed kill ratio 5% or more, less than 20%)
Barnyard grass [38]
  A (barnyard grass) weedkilling efficacy grade: 5 (weed kill ratio 90% or more, (practically complete withering))
Italian ryegrass [11]
  I (Italian ryegrass) weedkilling efficacy grade: 5 (weed kill ratio 90% or more, (practically complete withering))
Chickweed [12]
  N (chickweed) weedkilling efficacy grade: 4 (weed kill ratio 70% or more, less than 90%)
Directly sown rice [13]
  b (directly sown rice) effect on crop grade: 3 (weed kill ratio 40% or more, less than 70%)
Green foxtail [14]
  E (green foxtail) weedkilling efficacy grade: 5 (weed kill ratio 90% or more, (practically complete withering))
Wild oat [15]
  G (wild oat) weedkilling efficacy grade: 4 (weed kill ratio 70% or more, less than 90%)
Barnyard grass [16]
  F (barnyard grass) weedkilling efficacy grade: 5 (weed kill ratio 90% or more, (practically complete withering))
Barnyard grass [39]
  A (barnyard grass) weedkilling efficacy grade: 5 (weed kill ratio 90% or more, (practically complete withering))
Bulrush [40]
  B (bulrush) weedkilling efficacy grade: 5 (weed kill ratio 90% or more, (practically complete withering))
fig-leafed goosefoot [17]
  M (fig-leafed goosefoot) weedkilling efficacy grade: 3 (weed kill ratio 40% or more, less than 70%)
Corn [18]
  c (corn) effect on crop grade: 0 (weed kill ratio 5% or less (practically no effect))
Common wind-grass [19]
  J (common wind-grass) weedkilling efficacy grade: 5 (weed kill ratio 90% or more, (practically complete withering))
Crabgrass [20]
  D (crabgrass) weedkilling efficacy grade: 5 (weed kill ratio 90% or more, (practically complete withering))
Indian mallow [21]
  K (Indian mallow) weedkilling efficacy grade: 0 (weed kill ratio 5% or less (practically no effect))
Beet [41]
  f (beet) effect on crop grade: 0 (weed kill ratio 5% or less (practically no effect))
Wheat [22]
  e (wheat) effect on crop grade: 0 (weed kill ratio 5% or less (practically no effect))
Wheat [23]
  e (wheat) effect on crop grade: 0 (weed kill ratio 5% or less (practically no effect))
Barnyard grass [24]
  F (barnyard grass) weedkilling efficacy grade: 5 (weed kill ratio 90% or more, (practically complete withering))
Indian mallow [25]
  K (Indian mallow) weedkilling efficacy grade: 5 (weed kill ratio 90% or more, (practically complete withering))
Corn [26]
  c (corn) effect on crop grade: 4 (weed kill ratio 70% or more, less than 90%)
Chickweed [27]
  N (chickweed) weedkilling efficacy grade: 4 (weed kill ratio 70% or more, less than 90%)
birds-eye speedwell
  P (birds-eye speedwell) weedkilling efficacy grade: 4 (weed kill ratio 70% or more, less than 90%)
Catchweed [28]
  O (catchweed) weedkilling efficacy grade: 2 (weed kill ratio 20% or more, less than 40%)
Transplanted rice
  a (transplanted rice) effect on crop grade: 5 (weed kill ratio 90% or more, (practically complete withering))
Beet [29]
  f (beet) effect on crop grade: 4 (weed kill ratio 70% or more, less than 90%)
fig-leafed goosefoot [30]
  M (fig-leafed goosefoot) weedkilling efficacy grade: 4 (weed kill ratio 70% or more, less than 90%)
Rapeseed [31]
  g (rapeseed) effect on crop grade: 0 (weed kill ratio 5% or less (practically no effect))
oval-leafed pondweed [42]
  C (oval-leafed pondweed) weedkilling efficacy grade: 5 (weed kill ratio 90% or more, (practically complete withering))
Italian ryegrass [32]
  I (Italian ryegrass) weedkilling efficacy grade: 5 (weed kill ratio 90% or more, (practically complete withering))
Rapeseed [33]
  g (rapeseed) effect on crop grade: 4 (weed kill ratio 70% or more, less than 90%)
Soybean [34]
  d (soybean) effect on crop grade: 0 (weed kill ratio 5% or less (practically no effect))
Crabgrass [35]
  D (crabgrass) weedkilling efficacy grade: 5 (weed kill ratio 90% or more, (practically complete withering))

Source: patent publication US9738634B2, “Heterocyclic amide compound and herbicide” (SYNGENTA PARTICIPATIONS AG, priority 2013, dated 2017)
